# Test results as given in paper doi:10.1101/2024.12.17.628051v1 (biorxiv, 2024).
# Like-named read-outs stand apart in the source and are kept apart here.
# What was measured:
# [1] = molecular target: T1, STRAD/MO25 dimer (His-STRAD C160 and MO25) (Homo sapiens, UniProt Q7RTN6); experiment: biochemical; settings: read-out: residual occupancy (Average)
# T1 sequence (Q7RTN6 59-431): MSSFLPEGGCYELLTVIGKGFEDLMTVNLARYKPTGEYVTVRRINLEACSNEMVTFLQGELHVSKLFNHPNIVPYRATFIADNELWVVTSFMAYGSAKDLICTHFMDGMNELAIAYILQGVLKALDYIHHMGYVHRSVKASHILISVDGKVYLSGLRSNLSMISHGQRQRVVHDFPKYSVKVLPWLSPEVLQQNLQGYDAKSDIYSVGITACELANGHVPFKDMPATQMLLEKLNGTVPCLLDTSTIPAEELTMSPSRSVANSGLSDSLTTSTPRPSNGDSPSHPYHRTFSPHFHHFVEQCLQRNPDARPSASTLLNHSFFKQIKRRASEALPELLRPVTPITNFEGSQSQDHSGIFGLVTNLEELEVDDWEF
# T1 sequence (Q9Y376 1-341 partner): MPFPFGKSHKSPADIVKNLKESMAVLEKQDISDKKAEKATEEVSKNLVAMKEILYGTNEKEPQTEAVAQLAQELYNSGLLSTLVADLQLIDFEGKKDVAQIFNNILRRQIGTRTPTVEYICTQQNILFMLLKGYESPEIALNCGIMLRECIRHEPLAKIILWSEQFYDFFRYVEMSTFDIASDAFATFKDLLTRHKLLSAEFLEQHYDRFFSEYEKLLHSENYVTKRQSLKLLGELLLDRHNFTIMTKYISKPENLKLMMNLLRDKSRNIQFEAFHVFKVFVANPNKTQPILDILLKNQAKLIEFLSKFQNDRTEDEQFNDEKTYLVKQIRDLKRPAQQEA
# [2] = molecular target: T1, STRAD/MO25 dimer (His-STRAD C160 and MO25); experiment: TNP-ATP fluorescence displacement; type: binding; settings: 50 μM compound, 5 μM STRAD-MO25, 5 μM TNP-ATP, pH 7.5, room temperature
# [3] = molecular target: T1, STRAD/MO25 dimer (His-STRAD C160 and MO25); experiment: biochemical; settings: read-out: residual occupancy (Average); remark: listed apart in the source
# [4] = molecular target: T1, STRAD/MO25 dimer (His-STRAD C160 and MO25); experiment: TNP-ATP fluorescence displacement; type: binding
# LKB1/STRAD/MO25 trimer = molecular target: T2, LKB1/STRAD/MO25 trimer (Homo sapiens, UniProt Q7RTN6); experiment: Caliper mobility-shift kinase assay, Fam-LKBtide; type: biochemical
# T2 sequence (Q7RTN6 1-431): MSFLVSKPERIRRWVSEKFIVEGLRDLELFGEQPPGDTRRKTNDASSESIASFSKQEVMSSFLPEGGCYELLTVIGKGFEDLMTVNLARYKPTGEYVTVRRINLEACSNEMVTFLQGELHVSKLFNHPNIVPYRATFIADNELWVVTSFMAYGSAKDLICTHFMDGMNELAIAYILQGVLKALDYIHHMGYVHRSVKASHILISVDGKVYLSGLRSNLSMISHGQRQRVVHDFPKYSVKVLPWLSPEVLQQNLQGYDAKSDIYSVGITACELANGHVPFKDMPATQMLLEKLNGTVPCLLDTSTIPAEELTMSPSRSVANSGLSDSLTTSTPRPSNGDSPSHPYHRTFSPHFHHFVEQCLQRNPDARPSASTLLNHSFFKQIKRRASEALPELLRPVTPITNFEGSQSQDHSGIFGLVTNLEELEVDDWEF
# T2 sequence (Q15831 1-430 partner): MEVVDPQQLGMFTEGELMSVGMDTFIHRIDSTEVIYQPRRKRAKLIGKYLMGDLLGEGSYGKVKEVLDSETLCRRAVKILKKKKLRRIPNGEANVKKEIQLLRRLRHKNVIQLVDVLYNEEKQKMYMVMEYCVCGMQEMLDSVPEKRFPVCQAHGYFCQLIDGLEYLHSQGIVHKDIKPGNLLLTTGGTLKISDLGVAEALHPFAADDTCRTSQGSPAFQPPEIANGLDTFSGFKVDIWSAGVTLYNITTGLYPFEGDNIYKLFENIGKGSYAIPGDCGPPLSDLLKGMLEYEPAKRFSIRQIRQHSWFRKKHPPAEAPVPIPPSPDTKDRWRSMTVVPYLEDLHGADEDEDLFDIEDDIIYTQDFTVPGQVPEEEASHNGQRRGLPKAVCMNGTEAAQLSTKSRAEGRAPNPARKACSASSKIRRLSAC
# T2 sequence (Q9Y376 1-341 partner): T1 sequence (Q9Y376 1-341 partner)
Structure (SMILES),Residual Occupancy (Average) at 50 μM [2] [fraction],remaining activity at 50 µM [3] [%],also measured
N#CC(C#N)=Cc1ccc(O)c(O)c1 [AG-18],,,remaining activity at 50 µM [1]: 54%
COc1cc(N2CCC(N)CC2)ccc1Nc1ncc(Cl)c(-c2c[nH]c3ccccc23)n1 [AZD3463],0.33 ± 0.02,,
CCOc1cc(C(=O)N2CCC(N3CCN(C)CC3)CC2)ccc1Nc1ncc2c(n1)N(C1CCCC1)c1ccccc1C(=O)N2C [ERK5-IN-1],0.46 ± 0.02,,
COc1cc(Nc2ncc(F)c(Nc3ccc4c(n3)N(COP(=O)(O)O)C(=O)C(C)(C)O4)n2)cc(OC)c1OC [Fostamatinib (R788)],,52,
Cc1[nH]c2ccccc2c1C1=C(NCCc2ccc(F)cc2)C(=O)N(C)C1=O [IM-12],,58,
Cc1cc(Nc2ncc(Cl)c(Nc3ccccc3S(=O)(=O)C(C)C)n2)c(OC(C)C)cc1C1CCNCC1 [LDK378],0.40 ± 0.03,,
Nc1ncnc2c1c(-c1cccc(OCc3ccccc3)c1)cn2[C@H]1C[C@@H](CN2CCC2)C1 [NVP-AEW541],,19,IC50 [4]: 2400 nM
Cc1c[nH]c2nc(Nc3ccc(N4CCN(C)CC4)c(F)c3)nc(-c3cccc(CC#N)c3)c12 [SGI-7079],,56,
N#C/C(=C(/N)Sc1ccc(N)cc1)c1ccccc1C(F)(F)F [SL-327],,54,
CCOP(=O)(COc1cccc(-c2cn([C@H]3C[C@@H](CN4CCC4)C3)c3ncnc(N)c23)c1)OCC [SMALS-323],,,EC50 (LKB1/STRAD/MO25 trimer): 480 nM
CCOP(C)(=O)COc1cccc(-c2cn([C@H]3C[C@@H](CN4CCC4)C3)c3ncnc(N)c23)c1 (stereo partly shown) [SMALS-357],,,EC50 (LKB1/STRAD/MO25 trimer): 5200 nM
CN1CCN(CCOc2cc(OC3CCOCC3)c3c(Nc4c(Cl)ccc5c4OCO5)ncnc3c2)CC1 [Saracatinib],0.36 ± 0.02,,
